pEC50: −log10 of the molar value.
Each compound was assayed against T1, TLR8 (Homo sapiens, UniProt Q9NR97) (assay: In vitro human TLR8 binding reporter assay (HEK-Blue, NF-kB/AP1-inducible SEAP)). Conditions: activity range symbols.
T1 construct: host or cells: HEK-Blue cells (human HEK) co-expressing TLR8 and an NF-kB/AP1-inducible SEAP reporter
T1 sequence (Q9NR97 27-1041): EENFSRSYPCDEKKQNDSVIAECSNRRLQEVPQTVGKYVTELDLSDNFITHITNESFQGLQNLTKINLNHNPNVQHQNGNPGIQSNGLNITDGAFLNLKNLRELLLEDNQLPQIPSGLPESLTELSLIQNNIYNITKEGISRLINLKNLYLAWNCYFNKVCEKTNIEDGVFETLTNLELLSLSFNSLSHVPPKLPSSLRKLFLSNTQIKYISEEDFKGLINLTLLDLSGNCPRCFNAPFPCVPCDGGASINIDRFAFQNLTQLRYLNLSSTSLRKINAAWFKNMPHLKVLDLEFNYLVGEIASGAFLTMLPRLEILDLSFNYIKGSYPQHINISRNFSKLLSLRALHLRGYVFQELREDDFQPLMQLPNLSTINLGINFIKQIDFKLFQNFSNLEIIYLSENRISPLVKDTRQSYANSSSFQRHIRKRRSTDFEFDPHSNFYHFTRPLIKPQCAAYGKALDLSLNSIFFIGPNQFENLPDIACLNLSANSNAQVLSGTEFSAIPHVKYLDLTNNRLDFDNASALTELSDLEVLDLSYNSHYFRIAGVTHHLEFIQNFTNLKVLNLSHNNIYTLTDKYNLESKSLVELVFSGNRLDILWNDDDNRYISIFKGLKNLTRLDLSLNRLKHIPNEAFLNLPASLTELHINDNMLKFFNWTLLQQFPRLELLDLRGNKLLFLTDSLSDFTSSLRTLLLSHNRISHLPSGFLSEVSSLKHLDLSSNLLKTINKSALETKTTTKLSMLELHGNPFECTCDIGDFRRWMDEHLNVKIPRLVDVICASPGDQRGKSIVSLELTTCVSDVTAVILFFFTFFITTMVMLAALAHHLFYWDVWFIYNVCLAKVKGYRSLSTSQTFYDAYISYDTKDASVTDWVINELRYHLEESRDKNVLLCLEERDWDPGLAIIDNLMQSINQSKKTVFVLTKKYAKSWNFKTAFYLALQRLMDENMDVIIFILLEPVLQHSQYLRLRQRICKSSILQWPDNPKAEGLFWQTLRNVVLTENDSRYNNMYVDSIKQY
Assay type: cell-based
Method in brief: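 Reporter cells are plated at 15,000 per well and rested 24 h. Next day, test compounds or DMSO are dispensed, followed by 18 h incubation at 37 °C, 5% CO2.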

pEC50 | Compound
< 4.00 | CCC(=O)N(CC)Cc1nc2c(N)nc3cc(-c4cccs4)ccc3c2n1CC [Compound 480, N-{[4-amino-1-ethyl-7-(thiophen-2-yl)-1H-imidazo[4,5-c]quinolin-2-yl]methyl}-N-ethylpropanamide]
< 4.00 | CCC(=O)N(CC)Cc1nc2c(N)nc3cc(-n4cccn4)ccc3c2n1CC [Compound 481, N-{[4-amino-1-ethyl-7-(1H-pyrazol-1-yl)-1H-imidazo[4,5-c]quinolin-2-yl]methyl}-N-ethylpropanamide]
< 4.00 | CCN(Cc1nc2c(N)nc3cc(-c4cccs4)ccc3c2n1CCO)C(C)=O [Compound 482, N-{[4-amino-1-(2-hydroxyethyl)-7-(thiophen-2-yl)-1H-imidazo[4,5-c]quinolin-2-yl]methyl}-N-ethylacetamide]

More lines, now with the values behind:

Compound | pEC50
CCC(=O)N(CC)Cc1nc2c(N)nc3cc(-c4ccn[nH]4)ccc3c2n1CC [Compound 473, N-{[4-amino-1-ethyl-7-(1H-pyrazol-5-yl)-1H-imidazo[4,5-c]quinolin-2-yl]methyl}-N-ethylpropanamide] | < 4.00
CCN(Cc1nc2c(N)nc3cc(-c4ccn[nH]4)ccc3c2n1CC)C(C)=O [Compound 474, N-{[4-amino-1-ethyl-7-(1H-pyrazol-5-yl)-1H-imidazo[4,5-c]quinolin-2-yl]methyl}-N-ethylacetamide] | < 4.00
CCC(=O)N(CC)Cc1nc2c(N)nc3cc(-c4ccn[nH]4)ccc3c2n1CCO [Compound 475, N-{[4-amino-1-(2-hydroxyethyl)-7-(1H-pyrazol-5-yl)-1H-imidazo[4,5-c]quinolin-2-yl]methyl}-N-ethylpropanamide] | < 4.00
CCN(Cc1nc2c(N)nc3cc(-n4cccn4)ccc3c2n1CCO)C(C)=O [Compound 476, N-{[4-amino-1-(2-hydroxyethyl)-7-(1H-pyrazol-1-yl)-1H-imidazo[4,5-c]quinolin-2-yl]methyl}-N-ethylacetamide] | < 4.00
CCNCc1nc2c(N)nc3cc(-n4cccn4)ccc3c2n1CCO [Compound 477, 2-[4-amino-2-[(ethylamino)methyl]-7-(1H-pyrazol-1-yl)-1H-imidazo[4,5-c]quinolin-l-yl]ethan-1-ol] | < 4.00
CCC(=O)N(CC)Cc1nc2c(N)nc3cc(-n4cccn4)ccc3c2n1CCO [Compound 478, N-{[4-amino-1-(2-hydroxyethyl)-7-(1H-pyrazol-1-yl)-1H-imidazo[4,5-c]quinolin-2-yl]methyl}-N-ethylpropanamide] | < 4.00
CCN(Cc1nc2c(N)nc3cc(-n4cccn4)ccc3c2n1CC)C(C)=O [Compound 479, N-{[4-amino-1-ethyl-7-(1H-pyrazol-1-yl)-1H-imidazo[4,5-c]quinolin-2-yl]methyl}-N-ethylacetamide] | < 4.00

Reference: patent publication US12351580B2, “NLRP3 modulators” (Innate Tumor Immunity, Inc., priority 2017, dated 2025)
